Data: US8669247B2, “2,5-disubstituted arylsulfonamide CCR3 antagonists” (Axikin Pharmaceuticals, Inc., priority 2009, dated 2014)
Structures can show the parent of a compound that is named as a salt.

What was measured:
CCR3 receptor = biological target: T1, CCR3 receptor (UniProt P51677); test: CCR3 Receptor Binding Assay ([125I]-labeled human eotaxin/CCL11 displacement on cells)
T1 sequence (P51677 1-355): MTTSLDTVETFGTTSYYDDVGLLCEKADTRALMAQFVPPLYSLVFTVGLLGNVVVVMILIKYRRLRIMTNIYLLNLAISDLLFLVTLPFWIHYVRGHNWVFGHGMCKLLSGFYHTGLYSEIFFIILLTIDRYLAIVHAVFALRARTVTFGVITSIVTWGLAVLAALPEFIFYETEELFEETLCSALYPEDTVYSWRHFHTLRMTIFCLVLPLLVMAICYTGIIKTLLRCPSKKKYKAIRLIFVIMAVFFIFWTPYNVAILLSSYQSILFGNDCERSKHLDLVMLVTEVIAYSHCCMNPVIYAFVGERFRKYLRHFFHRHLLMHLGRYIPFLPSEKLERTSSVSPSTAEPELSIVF
Method: Cells were washed once with PBS and resuspended in a binding buffer (25 mM HEPES pH 7.6, 5 mM MgCl2, 1 mM CaCl2, 0.5% BSA, 0.1% NaN3), […] of cell suspension (2×10^5 cells/well) and 0.1 nM [^125I]-labeled human eotaxin/CCL11 (2000 Ci/mmol specific activity) were mixed in a 96-well U-bottom polypropylene plate, and incubated for 60 min at room temperature for the binding reaction. The cell suspension was then transferred to a filtration plate (#MAFB, Millipore), and washed 3 times with the binding buffer containing 0.5 M NaCl, scintillant added, and the radioactivity was counted on a TopCount (Packard). For the determination of non-specific binding, the cell suspension and [^125I]-labeled human eotaxin/CCL11 were incubated in the presence of 500 nM of unlabeled human eotaxin/CCL11. See, lino et al., “Molecular cloning and functional characterization of cynomolgus monkey (Macaca fascicularis) CC chemokine receptor, CCR3,” Cytokine 2002, 19, 276-286.

[1] = Free (free form of the compound)
[2] = HCl: hydrochloric acid salt of the corresponding compound

Ki (CCR3 receptor; [1]) [nM]	melting point [°C]	Ki (CCR3 receptor; [2]) [nM]	SMILES
> 5	191 to 194	–	O=[N+]([O-])c1ccc(Oc2cc(Cl)ccc2Cl)c(S(=O)(=O)N2CCSCC2)c1 [Compound 115, 4-(2-(2,5-Dichlorophenoxy)-5-nitrophenylsulfonyl)thiomorpholine]
–	125 to 143	–	N#Cc1ccc(Oc2cc(F)ccc2F)c(S(=O)(=O)N2CCNCC2)c1 (as salt: hydrochloride) [Compound 52, 4-(2,5-Difluorophenoxy)-3-(piperazin-1-ylsulfonyl)benzonitrile]
–	157 to 159	–	CC1CN(S(=O)(=O)c2cc(C#N)ccc2Oc2cc(F)ccc2F)CC(C)N1 (stereo not shown) (as salt: hydrochloride) [Compound 53, 4-(2,5-Difluorophenoxy)-3-(3,5-dimethylpiperazin-1-ylsulfonyl)benzonitrile]
> 5	–	> 5	N#Cc1ccc(Oc2cc(F)ccc2F)c(S(=O)(=O)NCCN2CCCCC2)c1 [Compound 64, 5-Cyano-2-(2,5-difluorophenoxy)-N-(2-(piperidin-1-yl)ethyl)benzenesulfonamide]
25 to 100	–	–	CN1CCCN(S(=O)(=O)c2cc(C#N)ccc2Oc2cc(Cl)ccc2Cl)CC1 [Compound 92, 4-(2,5-Dichlorophenoxy)-3-(4-methyl-1,4-diazepan-1-ylsulfonyl)benzonitrile]
> 5	–	> 5	N#Cc1ccc(Oc2cc(F)ccc2F)c(S(=O)(=O)N2CCC(N3CCCC3)CC2)c1 [Compound 60, 4-(2,5-Difluorophenoxy)-3-(4-(pyrrolidin-1-yl)piperidin-1-ylsulfonyl)benzonitrile]
100 to 500	–	–	CC(C)(O)C1CCN(S(=O)(=O)c2cc(C#N)ccc2Oc2cc(Cl)ccc2Cl)CC1 [Compound 97, 4-(2,5-Dichlorophenoxy)-3-(4-(2-hydroxypropan-2-yl)piperidin-1-ylsulfonyl)benzonitrile]
–	176 to 180	–	CC1CN(S(=O)(=O)c2cc(C#N)ccc2Sc2cc(Cl)ccc2Cl)CC(C)N1 (stereo not shown) (as salt: hydrochloride) [Compound 79, 4-(2,5-Dichlorophenylthio)-3-(3,5-dimethylpiperazin-1-ylsulfonyl)benzonitrile]
100 to 500	–	–	N#Cc1ccc(Oc2cc(Cl)ccc2Cl)c(S(=O)(=O)NCCN2CCOCC2)c1 [Compound 95, 5-Cyano-2-(2,5-dichlorophenoxy)-N-(2-morpholinoethyl)benzenesulfonamide]
25 to 100	–	25 to 100	N#Cc1ccc(Oc2cc(F)ccc2F)c(S(=O)(=O)N2CCN(C3CCCC3)CC2)c1 [Compound 56, 3-(4-Cyclopentylpiperazin-1-ylsulfonyl)-4-(2,5-difluorophenoxy)benzonitrile]
–	179 to 182	–	CC(C)N1CCN(S(=O)(=O)c2cc(C#N)ccc2Oc2cc(F)ccc2F)CC1 (as salt: hydrochloride) [Compound 54, 4-(2,5-Difluorophenoxy)-3-(4-isopropylpiperazin-1-ylsulfonyl)benzonitrile]
10 to 25	–	–	O=C1CN(S(=O)(=O)c2cc([N+](=O)[O-])ccc2Oc2cc(Cl)ccc2Cl)CCN1 [Compound 126, 4-(2-(2,5-Dichlorophenoxy)-5-nitrophenylsulfonyl)piperazin-2-one]
25 to 100	–	25 to 100	CCC(CC)N1CCN(S(=O)(=O)c2cc(C#N)ccc2Sc2cc(Cl)ccc2Cl)CC1 [Compound 78, 4-(2,5-Dichlorophenylthio)-3-(4-(pentan-3-yl)piperazin-1-ylsulfonyl)-benzonitrile]
> 5	–	–	CCC(CC)N1CCN(S(=O)(=O)c2cc(C#N)ccc2Oc2cc(F)ccc2F)CC1 [Compound 55, 4-(2,5-Difluorophenoxy)-3-(4-(pentan-3-yl)piperazin-1-ylsulfonyl)benzonitrile]
> 5	–	> 5	CN(C)C1CCN(S(=O)(=O)c2cc(C#N)ccc2Oc2cc(F)ccc2F)CC1 [Compound 59, 4-(2,5-Difluorophenoxy)-3-(4-(dimethylamino)piperidin-1-ylsulfonyl)benzonitrile]
≤ 10	–	10 to 25	CN1CCCN(S(=O)(=O)c2cc(C#N)ccc2Sc2cc(Cl)ccc2Cl)CC1 [Compound 81, 4-(2,5-Dichlorophenylthio)-3-(4-methyl-1,4-diazepan-1-ylsulfonyl)-benzonitrile]
≤ 10	–	≤ 10	CC(C)N1CCN(S(=O)(=O)c2cc(C#N)ccc2Sc2cc(Cl)ccc2Cl)CC1 [Compound 77, 4-(2,5-Dichlorophenylthio)-3-(4-isopropylpiperazin-1-ylsulfonyl)benzonitrile]
> 5	–	–	CCCCc1nc(Cl)c2n1C(=O)N(C1CCN(S(=O)(=O)c3cc(C#N)ccc3Oc3cc(Cl)ccc3Cl)CC1)C2 [Compound 93, 3-(4-(5-Butyl-7-chloro-3-oxo-1H-imidazo[1,5-c]imidazol-2(3H)-yl)piperidin-1-ylsulfonyl)-4-(2,5-dichlorophenoxy)benzonitrile]
–	–	25 to 100	CC(C)N1CCCN(S(=O)(=O)c2cc(C#N)ccc2Oc2cc(Cl)ccc2Cl)CC1 [Compound 98, 4-(2,5-Dichlorophenoxy)-3-(4-isopropyl-1,4-diazepan-1-ylsulfonyl)benzonitrile]
10 to 25	–	–	O=[N+]([O-])c1ccc(Oc2cc(Cl)ccc2Cl)c(S(=O)(=O)N2CCC(N3CCCC3)CC2)c1 [Compound 61]
≤ 10	–	–	CC(C)N1CCN(S(=O)(=O)c2cc([N+](=O)[O-])ccc2Oc2cc(Cl)ccc2Cl)CC1 [Compound 107, 1-(2-(2,5-Dichlorophenoxy)-5-nitrophenylsulfonyl)-4-isopropylpiperazine]

Continued, compound first:

SMILES	Ki (CCR3 receptor; [1]) [nM]	melting point [°C]	Ki (CCR3 receptor; [2]) [nM]
Cc1ccc(C)c(Sc2ccc([N+](=O)[O-])cc2S(=O)(=O)N2CCSCC2)c1 [Compound 116, 4-(2-(2,5-Dimethylphenylthio)-5-nitrophenylsulfonyl)thiomorpholine]	> 5	130 to 137	–
CC(C)N1CCN(S(=O)(=O)c2cc([N+](=O)[O-])ccc2Sc2cc(Cl)ccc2Cl)CC1 [Compound 108, 1-(2-(2,5-Dichlorophenylthio)-5-nitrophenylsulfonyl)-4-isopropylpiperazine]	≤ 10	–	–
CCN(CC)CCNS(=O)(=O)c1cc(C#N)ccc1Sc1cc(C)ccc1C [Compound 73, 5-Cyano-N-(2-(diethylamino)ethyl)-2-(2,5-dimethylphenylthio)-benzenesulfonamide]	–	–	25 to 100
Cc1ccc(C)c(Sc2ccc([N+](=O)[O-])cc2S(=O)(=O)N2CCNC(=O)C2)c1 [Compound 125, 4-(2-(2,5-Dimethylphenylthio)-5-nitrophenylsulfonyl)piperazin-2-one]	> 5	–	–
O=[N+]([O-])c1ccc(Sc2cc(Cl)ccc2Cl)c(S(=O)(=O)N2CCN(C3CCCCC3)CC2)c1 [Compound 118, 1-Cyclohexyl-4-(2-(2,5-dichlorophenylthio)-5-nitrophenylsulfonyl)piperazine]	10 to 25	–	–
O=C1CN(S(=O)(=O)c2cc([N+](=O)[O-])ccc2Sc2cc(Cl)ccc2Cl)CCN1 [Compound 124, 4-(2-(2,5-Dichlorophenylthio)-5-nitrophenylsulfonyl)piperazin-2-one]	≤ 10	–	–
Cc1ccc(C)c(Sc2ccc(C#N)cc2S(=O)(=O)N2CCN(C(C)C)CC2)c1 [Compound 67, 4-(2,5-Dimethylphenylthio)-3-(4-isopropylpiperazin-1-ylsulfonyl)benzonitrile]	25 to 100	–	100 to 500
Cc1ccc(C)c(Sc2ccc(C#N)cc2S(=O)(=O)N2CCN(C3CCCC3)CC2)c1 [Compound 69, 3-(4-Cyclopentylpiperazin-1-ylsulfonyl)-4-(2,5-dimethylphenylthio)-benzonitrile]	25 to 100	–	100 to 500
CC1CN(S(=O)(=O)c2cc([N+](=O)[O-])ccc2Sc2cc(Cl)ccc2Cl)CC(C)N1 (stereo not shown) [Compound 103, 1-(2-(2,5-Dichlorophenylthio)-5-nitrophenylsulfonyl)-3,5-dimethylpiperazine]	> 5	–	–
Cc1ccc(C)c(Oc2ccc([N+](=O)[O-])cc2S(=O)(=O)N2CCNCC2)c1 [Compound 148, 1-(2-(2,5-Dimethylphenoxy)-5-nitrophenylsulfonyl)piperazine]	–	–	> 5
CCN1CCN(S(=O)(=O)c2cc([N+](=O)[O-])ccc2Sc2cc(C)ccc2C)CC1 [Compound 101, 1-(2-(2,5-Dimethylphenylthio)-5-nitrophenylsulfonyl)-4-ethylpiperazine]	> 5	–	–
Cc1ccc(C)c(Sc2ccc(C#N)cc2S(=O)(=O)N2CC(C)NC(C)C2)c1 (stereo not shown) [Compound 66, 4-(2,5-Dimethylphenylthio)-3-(3,5-dimethylpiperazin-1-ylsulfonyl)-benzonitrile]	≤ 10	–	–
Cc1ccc(C)c(Sc2ccc([N+](=O)[O-])cc2S(=O)(=O)N2CC(C)NC(C)C2)c1 (stereo not shown) [Compound 105, 1-(2-(2,5-Dimethylphenylthio)-5-nitrophenylsulfonyl)-3,5-dimethylpiperazine]	> 5	–	–
CN1CCN(S(=O)(=O)c2cc([N+](=O)[O-])ccc2Sc2cc(Cl)ccc2Cl)CC1 [Compound 133, 1-(2-(2,5-Dichlorophenylthio)-5-nitrophenylsulfonyl)-4-methylpiperazine]	> 5	–	–
